Earlier results, collected in patent publication US8992954B2, “Compositions comprising a derivative of 5-aminolevulinic acid” (Photocure ASA, priority 2010, dated 2015).

Tested on: skin
Details: Eucerin cream base with 5%, 10% and 20% by weight of ALA; occlusion 4 hours; visible light

NCC(=O)CCC(=O)O [Composition 5-ALA, 5-amino-4-oxo-pentanoic acid]
Complaints during illumination: All volunteers complained about burning and itching | Pigmentary response: pigmentary response was observed | Skin reactions after the illumination: erythema and edema appeared
